Earlier results, collected in publication PMC3187562 (ACS medicinal chemistry letters, 2011).

Tests used:
[1] = test system: ΔF508-CFTR; conditions: Phase 2a clinical study, CF patients
[2] = test system: ΔF508-CFTR; conditions: CF lung cell line expressing ΔF508-CFTR from a viral promoter
[3] = test system: HDAC7

Cc1ccc(NC(=O)C2(c3ccc4c(c3)OC(F)(F)O4)CC2)nc1-c1cccc(C(=O)O)c1 [VX-809]
sweat chloride levels (key biomarker) [1]: reduced sweat chloride levels

CC(/C=C/C(=O)NO)=C\[C@@H](C)C(=O)c1ccc(N(C)C)cc1 [compound 1, trichostatin A]
increase of ΔF508-CFTR mRNA levels [2]: > 15 fold

O=C(CCCCCCC(=O)Nc1ccccc1)NO [compound 2, vorinostat]
increase of ΔF508-CFTR mRNA levels [2]: > 15 fold
increase of ΔF508-CFTR protein levels [2]: 25 fold

C/C=C1\NC(=O)[C@H]2CSSCC/C=C/[C@H](CC(=O)N[C@H](C(C)C)C(=O)N2)OC(=O)[C@H](C(C)C)NC1=O [romidepsin]
expression of HDAC7 in treated cells [3]: selectively down-regulated
